# Data: PMC11145868, “Protein target similarity is positive predictor of in vitro antipathogenic activity: a drug repurposing strategy for Plasmodium falciparum” (Journal of Cheminformatics, 2024)
# Where a name gives a salt, the structure may show the parent alone. Read-outs that look alike come from different tables or passages of the source.
# Assays:
# P. falciparum Dd2-HLH [1] = test: microbe, parasite or virus in culture; assay type: cell-based, Plasmodium falciparum; settings: Plasmodium falciparum
# P. falciparum Dd2-HLH [2] = test: microbe, parasite or virus in culture; assay type: cell-based, Plasmodium falciparum; settings: Plasmodium falciparum, read-out: Blood stage 72h EC50
# [3] = tested on: P. berghei-luciferase sporozoites; test: microbe, parasite or virus in culture; assay type: cell-based, Plasmodium berghei; settings: Plasmodium berghei, liver-stage parasites
# [4] = Mammalian cell cytotoxicity assay, HepG2 (CellTiter-Glo, 72 h); settings: human, HepG2 cells
# [5] = Mammalian cell cytotoxicity assay, HEK293T (CellTiter-Glo, 72 h); settings: human, HEK293T cells
# [6] = DD2, 48 h, read-out: Blood stage 48h EC50
# [7] = HepG2, 48 hours in culture, read-out: Liver stage 48h EC50
# [8] = DD2, P. falciparum blood-stage parasites, 48 hours in culture, read-out: Blood stage 48h EC50
# [9] = DD2, P. falciparum blood-stage parasites, 72 hours in culture
Compound,EC50 (P. falciparum Dd2-HLH [1]; [6]) [µM],"EC50 (P. falciparum Dd2-HLH [2]; DD2, 72 h) [µM]","EC50 [3, 7] [µM]",CC50 at 72 h [4] [µM],CC50 at 72 h [5] [µM],EC50 (P. falciparum Dd2-HLH [1]; [8]) [µM],EC50 (P. falciparum Dd2-HLH [2]; [9]) [µM],"EC50 (P. falciparum Dd2-HLH [1]; DD2, read-out: EC50 (antiplasmodial, quoted in discussion from Supplementary Table 1)) [µM]","EC50 (P. falciparum Dd2-HLH [1]; DD2, Hec50, 48 h, read-out: Blood stage 48 h EC50) [µM]","EC50 ([3]; 48 h in culture, read-out: Liver 48 h EC50) [µM]","EC50 (P. falciparum Dd2-HLH [1]; DD2, stage and incubation time not given, read-out: EC50 (antiplasmodial, quoted in discussion from Supplementary Table 1)) [µM]"
COc1cc(N2CCC(N3CCN(C)CC3)CC2)ccc1Nc1ncc(Cl)c(Nc2ccccc2P(C)(C)=O)n1 [Brigatinib],0.099,0.346,3.33,0.136,1.39,–,–,–,–,–,–
C[C@]12O[C@H](C[C@]1(O)CO)n1c3ccccc3c3c4c(c5c6ccccc6n2c5c31)CNC4=O [Lestaurtinib],–,–,1.02,0.029,0.551,0.088,0.259,–,–,–,–
c1cc(-c2nc3ccc(-c4ccc5nc(-c6ccncc6)[nH]c5c4)cc3[nH]2)ccn1 [Ridinilazole],–,0.09,0.215,3.11,> 9.95,–,–,–,–,–,–
COc1ccc(C[C@H](N)C(=O)N[C@H]2[C@@H](O)[C@H](n3cnc4c(N(C)C)ncnc43)O[C@@H]2CO)cc1 [Puromycin],0.061,0.125,0.84,0.498,1.25,–,–,–,–,–,–
CC(=O)O[C@@]12CO[C@@H]1C[C@H](O)[C@@]1(C)C(=O)[C@H](O)C3=C(C)[C@@H](OC(=O)[C@H](O)[C@@H](NC(=O)OC(C)(C)C)c4ccccc4)C[C@@](O)([C@@H](OC(=O)c4ccccc4)[C@H]21)C3(C)C [Docetaxel],0.011,0.011,0.401,0.024,> 9.95,–,–,–,–,–,–
"CN(C)Cc1ccc(S(=O)(=O)n2ccc(/C=C/C(=O)NO)c2)cc1 [resminostat, reference compound]",–,0.697,7.06,1.2,3.55,–,–,0.431,–,–,–
CN(c1ccc(Cl)cc1)c1cc[n+](Cc2ccc(-c3ccc(C[n+]4ccc(N(C)c5ccc(Cl)cc5)c5ccccc54)cc3)cc2)c2ccccc12 [TCD-717],0.063,0.714,0.102,4.77,1.93,–,–,–,–,–,–
COC(=O)[C@]12CCC(C)(C)C[C@H]1[C@H]1C(=O)C=C3[C@@]4(C)C=C(C#N)C(=O)C(C)(C)[C@@H]4CC[C@@]3(C)[C@]1(C)CC2 [Bardoxolone methyl],0.34,0.75,0.155,0.557,0.208,–,–,–,–,–,–
N[C@H](C(=O)O)[C@@H]1CC(Cl)=NO1 [Acivicin],0.209,0.545,1.1,1.7,7.73,–,–,–,–,–,–
c1ccc(Cn2c(N3CCNCC3)nc3ccccc32)cc1 [Lerisetron],0.144,0.267,1.13,0.236,> 9.95,–,–,–,–,–,–
CCCCN(CCCC)CCC(O)c1cc2c(Cl)cc(Cl)cc2c2cc(C(F)(F)F)ccc12 (stereo not shown) [Halofantrine HCl],–,0.001,1.88,> 9.95,> 9.95,–,–,–,–,–,–
CC(=O)Nc1cccc(-n2c(=O)n(C3CC3)c(=O)c3c(Nc4ccc(I)cc4F)n(C)c(=O)c(C)c32)c1 [Trametinib dimethyl sulfoxide],0.16,0.3,–,0.119,> 9.95,–,–,–,–,–,–
CN1CCC(CNc2ccc3ncc(-c4cccc(OC(F)(F)F)c4)n3n2)CC1 [SGI-1776],0.482,0.623,1.79,1.04,4.58,–,–,–,–,–,–
O=C(NO)c1cnc(N2C[C@@H]3[C@H](C2)[C@H]3NCc2ccc3cc(F)ccc3n2)nc1 [CHR-3996],0.02,0.015,0.151,0.195,0.92,–,–,–,–,–,–
Cc1cc(N)c2cc(NC(=O)Nc3ccc4nc(C)cc(N)c4c3)ccc2n1 [Aminoquinuride],0.079,0.449,3.49,> 9.99,> 9.95,–,–,–,–,–,–
CC(=O)O[C@H]1C(=O)[C@@]2(C)[C@H]([C@H](OC(=O)c3ccccc3)[C@]3(O)C[C@H](OC(=O)[C@H](O)[C@@H](NC(=O)c4ccccc4)c4ccccc4)C(C)=C1C3(C)C)[C@]1(OC(C)=O)CO[C@@H]1C[C@@H]2O [Paclitaxel],0.164,0.186,7.53,7.04,> 9.95,–,–,–,–,–,–
"CO[C@H]1C(=O)[C@]2(C)[C@@H](OC)C[C@H]3OC[C@@]3(OC(C)=O)[C@H]2[C@H](OC(=O)c2ccccc2)[C@]2(O)C[C@H](OC(=O)[C@H](O)[C@@H](NC(=O)OC(C)(C)C)c3ccccc3)C(C)=C1C2(C)C [Cabazitaxel, reference compound]",–,0.008,–,0.784,> 9.95,–,–,–,0.006,0.043,–
CC1=C(c2ccc(O)cc2)[C@H](c2ccc(OCCN3CCCCC3)cc2)Oc2cc(O)ccc21 [Acolbifene],0.218,0.728,2.83,6.21,2.99,–,–,–,–,–,–
CN(C)CCCN1c2ccccc2CCc2ccccc21 [Imipramine hydrochloride],0.18,0.963,> 10,> 9.95,> 9.95,–,–,–,–,–,–
CC[C@]1(O)C[C@@H]2CN(CCc3c([nH]c4ccccc34)[C@@](C(=O)OC)(c3cc4c(cc3OC)N(C)[C@H]3[C@@](O)(C(N)=O)[C@H](O)[C@]5(CC)C=CCN6CC[C@]43[C@@H]65)C2)C1 [Vindesine],0.014,0.02,0.837,> 9.99,> 9.95,–,–,–,–,–,–
CC(C)C(=O)OCC(=O)[C@@]12O[C@H](C3CCCCC3)O[C@@H]1C[C@H]1[C@@H]3CCC4=CC(=O)C=C[C@]4(C)[C@H]3[C@@H](O)C[C@@]12C [Ciclesonide],0.199,0.661,3.33,> 9.95,–,–,–,–,–,–,–
COc1cccc2c1C(=O)c1c(O)c3c(c(O)c1C2=O)C[C@@](O)(C(=O)CO)C[C@@H]3O[C@H]1C[C@H](N)[C@H](O)[C@H](C)O1 [Doxorubicin],0.065,0.25,1.72,0.044,0.074,–,–,–,–,–,–
CCN(CC)CC[n+]1ccc2c(C)c3[nH]c4ccc(O)cc4c3c(C)c2c1 [Datelliptium Chloride],–,0.193,> 10,0.505,4.69,–,–,–,–,–,–
CCCCCC(=O)O[C@]1(C(C)=O)CC[C@H]2[C@@H]3CCC4=CC(=O)CC[C@]4(C)[C@H]3CC[C@@]21C [Hydroxyprogesterone caproate],0.55,0.742,1.71,0.863,> 9.95,–,–,–,–,–,–
"COC1=C(C)C(=O)C2=C(C1=O)[C@@H](COC(N)=O)[C@@]1(OC)[C@H]3N[C@H]3CN21 [mitomycin A, reference compound]",–,–,1.36,0.032,0.362,0.038,0.018,–,–,–,0.0377
CNCCCN1c2ccccc2CCc2ccccc21 [Desipramine],0.238,0.622,3.33,–,> 9.95,–,–,–,–,–,–
C/C(=C\c1csc(C)n1)[C@@H]1C[C@@H]2O[C@]2(C)CCC[C@H](C)[C@H](O)[C@@H](C)C(=O)C(C)(C)[C@@H](O)CC(=O)N1 [Ixabepilone],0.042,–,0.867,0.007,0.015,–,–,–,–,–,–
CN1CCN(C2CCN(C(=O)Nc3cc(Oc4ccc(NC(=O)C5(C(=O)Nc6ccc(F)cc6)CC5)c(F)c4)ccn3)CC2)CC1 [Golvatinib],0.738,1.02,2.84,–,4.36,–,–,–,–,–,–
